In US20250236616A1, “IMMUNOMODULATING AZALIDES” (Zoetis Services LLC, priority 2021, published 2025):

Experiments:
[1] = system: BRD pathogens, M. haemolytica and P. multocida; assay: MIC screening panel, BRD pathogens (CLSI broth micro-dilution); type: cell-based; conditions: BRD pathogenic strains / target pathogens; read-out: MIC
Outline: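 MICs were determined by CLSI broth micro-dilution in cation-adjusted Mueller Hinton Broth at about 5×10^5 CFU/mL, with QC strains included. Incubation was 18-22 h at 35-37° C. in air, 5% CO2 or anaerobically (up to 48 h) depending on strain. BRD pathogens were first tested at a top concentration of 64 μg/mL in an eleven-point dilution series.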

H. somni = assay: MIC, H. somni strains; type: cell-based; conditions: lung isolates at necropsy, natural BRD study, n=25
Source text: Primary screening of the compounds of the invention included the evaluation of antibacterial activity of analogs through determination of microbial inhibition concentration (MIC) as per CLSI guidelines. The screening panel included the relevant BRD pathogens: 1) M. haemolytica (e.g., 12726, 46571 and 49023, all AHDRCC; and 33396 (ATCC)); and 2) P. multocida (e.g., 34135 and 46572 (both AHDRCC) and 43137 (ATCC)). In some instances, H. somni (A700025K) pathogens were also included in the screening panel. The AHDRCC strains originated from the Zoetis BRD/SRD surveillance program and refer to the Animal Health Development and Research Culture Collection. In addition, the screen assessed S. aureus (29213 ATCC) as a representative Gram-positive isolate, E.faecalis (19433 ATCC) as a commensal gram-positive gastrointestinal bacterium and E. coli (100, 3110 and 25922 (ATCC)) for the evaluation of efflux potential. The screening panel BRD pathogens were assessed in determining antibacterial activity of the Formula (1) compounds.
All relevant BRD pathogens were initially screened at a top concentration of 64 μg/mL of a Formula (1) compound in an eleven-point dilution series. […] If an Example was purified further, the MICs moved […] essentially two dilutions across all strains tested in the screening panel.
In-Vitro MIC Model Compounds were analyzed for antibacterial activity against a panel of animal health specific gram-positive and gram-negative clinical strains by diluting compounds in DMSO to an appropriate stock concentration to determine the Minimal Inhibitory Concentration (MIC) via a semi-automated broth micro-dilution method (CLSI reference method) with QC strains and anti-microbial agent(s). Specifically, bacteria were grown overnight on TSA w/5% sheep blood agar plates and diluted in saline buffer to a McFarland Standard 0.5, then further diluted in cation-ion adjusted Mueller Hinton Broth to a final concentration of approximately 5×10^5 CFU/mL. 100 μL of inoculated media was added to 96-well plate(s) with 3 μL of serially diluted compound in each row. Depending on strain (see CLSI reference method), bacteria were incubated 18-22 hours at 35-37° C. in ambient air, with 5% CO2 or anaerobically (up to 48 hours).

IL-6 = IL-6 biomarker in bovine M. haemolytica challenge; type: in vivo
Experimental: Cytokine Detection—An MSD U-Plex cytokine assay was developed following the MSD U-Plex protocol guide and included biotinylated capture antibodies against: bovine Interleukin (IL)-1β (Biorad), bovine IL-6 (R&D Systems) and bovine tumor necrosis factor (TNF)-α (R&D Systems). The anti-IL-1β antibody was biotinylated using EZ-Link Sulfo-NHS-Biotin (Thermo Scientific) at a challenge ratio of 1:20 according to manufacturer instructions. Assay calibrators (Kingfisher) were diluted to a concentration of […] in control lithium heparin plasma, followed by 4-fold serial dilutions into plasma. The detection antibodies were sulfo-tagged following the MSD quick guide conjugation protocol using a challenge ratio of 1:20. Antibodies were used at the following concentrations: anti-IL-1β at 1 μg/mL, anti-IL-6 at 1 μg/mL and anti-TNF-α at 0.5 μg/mL. Cytokines were quantified according to manufacturer's instructions using a chemiluminescent readout. In brief, 0.5 mL of all biotinylated antibodies were diluted to 10 μg/mL with Diluent 100 and paired to their respective linkers by adding 750 μL of supplied Linker solution and incubated for 30 minutes followed by addition of Stop solution for another 30 minutes. […] Plates were washed a further three times before addition of 150 μL 2X Read buffer and read immediately on the SI6000 instrument (MSD). […]

CCCNC[C@]1(O)[C@H](C)O[C@@H](O[C@H]2[C@H](C)[C@@H](O[C@@H]3O[C@H](C)C[C@H](NC)[C@H]3O)[C@](C)(O)C[C@@H](C)CN[C@H](C)[C@@H](O)[C@](C)(O)[C@@H](CC)OC(=O)[C@@H]2C)C[C@@]1(C)OC [Example M9, (2R,3S,4R,5R,8R,10R,11R,12S,13S,14R)-2-ethyl-3,4, 10-trihydroxy-13-(((2R,4R,5S,6S)-5-hydroxy-4-methoxy-4,6-dimethyl-5-((propylamino)methyl)-tetrahydro-2H-pyran-2-yl)oxy)-11-(((2S,3R,4S,6R)-3-hydroxy-6-methyl-4-(methylamino)tetrahydro-2H-pyran-2-yl)oxy)-3,5,8,10,12,14-hexamethyl-1-oxa-6-azacyclopentadecan-15-one]
MIC [1]: ≤ 64 µg/mL | MIC Range (H. somni): 8 to 64 µg/mL | IL-6 levels (IL-6): significantly reduced IL-6 levels
